Measurements from patent publication US5607926A, “Cephalosporin antibiotics” (Microcide Pharmaceuticals, Inc., priority 1995, dated 1997).
In brackets after ≈: the same amount, converted by molar mass. Counter-ions that a name gives are not always drawn. Like-named read-outs stand apart in the source and are kept apart here.

How the values were obtained:
Format in all cases: cell-based
S. aureus ATCC 25923 = assay: In vitro antibacterial evaluation, MIC by agar dilution, S. aureus ATCC 25923; conditions: Staphylococcus aureus, ATCC25923
Method: (§1) The compounds of the invention were evaluated against several β-lactamresistant bacteria strains by determining the minimum inhibitory concentration (MIC, μg/ml) of each compound with respect to each strain. The MIC, the lowest concentration of antibiotic which inhibits growth of the test organism, was determined by the agar dilution method.
(§2) To determine the MIC for bacterial isolates, the test compound was incorporated in a series of two-fold dilutions into liquified Mueller-Hinton agar. Upon solidification, a number of different bacterial strains were spot inoculated with a replicating device onto the agar surface. […] The procedures used in these studies have been standardized by the National Committee for Clinical Laboratory Standards (NCCLS), as per the NCCLS publication entitled METHODS FOR DILUTION ANTIMICROBIAL SUSCEPTIBILITY TESTS (1991), which is incorporated herein by reference.
(§3) Aliquots of antimicrobial agents were prepared in phosphate buffered saline (PBS) at pH 7.2. Tween 20 or DMSO was used as a solubilizing vehicle as needed. Standard methods of vortexing, sonicating and gentle heat were used to facilitate solubilizing the test agent. Typically, the concentration of the stock solution was 10× that of the highest drug concentration tested. A 1.28 mg/mL stock solution was used with a subsequent highest working concentration of 128 μg/mL. Serial two-fold dilutions were done through ≤0.25 μg/mL. Each drug level was tested in duplicate. Two-fold drug dilutions were done in sterile 50 mL tubes with a final drug volume of 5 mL. Upon the addition of 45 mL of molten agar, a 10-fold dilution resulted. Two, 25 mL. plates were then poured into 15×150 mm square Petri plates with grids and allowed to harden.
(§4) A control plate with a reference drug, either cefotaxime, vancomycin or imipenem, was used as the positive growth control. Stock concentrations of reference antibiotics were prepared and frozen at -80° C. Upon preparation, the control plates were sealed and stored in the refrigerator for up to 1 week prior to use; however, imipenem control plates had to be prepared just prior to use. All test plates were used within 24 hours of preparation.
(§5) Satisfactory results were obtained where the inoculum contained about 10^4 colony forming units (cfu) ±0.5 logs. Starting with pure cultures of the test isolates on agar plates, a few isolated colonies were transferred to a tube of nutrient broth and allowed to grow 4-6 hours at 35°-36° C. to reach log-phase growth. Dropwise addition of the broth culture to PBS was done to match a 0.5 McFarland turbidity standard equal to 10^8 cfu/mL. This was further diluted ten-fold in PBS to reach a working inoculum concentration of 10^7 cfu/mL. When 1 μL of the working inoculum was applied to the agar surface a concentration of about 10^4 cfu per spot was obtained.
(§6) Disposable sterile 1 μL loops were used to inoculate test plates, with each isolate in a designated grid on the agar plate. An alternate method of inoculation involved the use of a replica plater, a device with 48 steel pins allowing the simultaneous inoculation of multiple isolates. After the spots had dried, the plates were incubated at 35°-36° C. for 16-20 hours. Endpoints were assessed as the minimum inhibitory concentration (MIC) of antimicrobial agent.

[1] = system: S. epidermidis ATCC 31432; assay: In vitro antibacterial evaluation, MIC by agar dilution, S. epidermidis ATCC 31432; conditions: Staphylococcus epidermidis, ATCC31432
Method: as §1, §2, §3, §4, §5, §6

[2] = system: S. aureus 76 (Meth^R)(lac^+); assay: In vitro antibacterial evaluation, MIC by agar dilution, S. aureus 76; conditions: Staphylococcus aureus, read-out: MIC
How it was run: (§7)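 Growth inhibition on Mueller-Hinton agar plates defined the MIC, the lowest compound level stopping visible growth after 16-20 hours at 35°-36° C. Compound was incorporated at two-fold steps from 128 μg/mL to ≤0.25 μg/mL, each tested twice, with about 10^4 cfu spotted per isolate.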

[3] = system: S. aureus Col8A (Meth^S)(lac^-); assay: In vitro antibacterial evaluation, MIC by agar dilution, S. aureus Col8A; conditions: Staphylococcus aureus
How it was run: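 Agar dilution per NCCLS (1991): two-fold dilutions from 128 μg/mL down to ≤0.25 μg/mL in Mueller-Hinton agar, each level in duplicate. Spots of about 10^4 cfu of log-phase culture; 16-20 h at 35°-36° C. MIC in μg/ml is the lowest concentration inhibiting growth.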

S. haemolyticus (Meth^R) = assay: In vitro antibacterial evaluation, MIC by agar dilution, S. haemolyticus; conditions: Staphylococcus haemolyticus, read-out: MIC
How it was run: as §7

E. faecium ATCC 35667 = assay: In vitro antibacterial evaluation, MIC by agar dilution, E. faecium ATCC 35667; conditions: Enterococcus faecium, ATCC35667, read-out: MIC
How it was run: as §7

E. faecalis ATCC 29212 = assay: In vitro antibacterial evaluation, MIC by agar dilution, E. faecalis ATCC 29212; conditions: Enterococcus faecalis, ATCC29212; E. faecalis ATCC 29212; read-out: MIC
How it was run: as §7

E. coli ATCC 25922 = assay: In vitro antibacterial evaluation, MIC by agar dilution, E. coli ATCC 25922; conditions: Escherichia coli, ATCC25922, read-out: MIC
How it was run: as §7

P. aeruginosa ATCC 27853 = assay: In vitro antibacterial evaluation, MIC by agar dilution, P. aeruginosa ATCC 27853; conditions: Pseudomonas aeruginosa, ATCC27853, read-out: MIC
How it was run: as §7

[4] = S. aureus ATCC 25923, read-out: MIC
[5] = S. epidermidis ATCC 31432, read-out: MIC

| SMILES | MIC (S. aureus ATCC 25923) [µg/mL] | MIC [1] [µg/mL] | MIC [2] [µg/mL] | MIC [3] [µg/mL] | MIC (S. haemolyticus (Meth^R)) [µg/mL] | MIC (E. faecium ATCC 35667) [µg/mL] | MIC (E. faecalis ATCC 29212) [µg/mL] | MIC (E. coli ATCC 25922) [µg/mL] | MIC (P. aeruginosa ATCC 27853) [µg/mL] | MIC (S. aureus ATCC 25923; [4]) [µg/mL] | MIC [1, 5] [µg/mL] |
| --- | --- | --- | --- | --- | --- | --- | --- | --- | --- | --- | --- |
| COc1ccc(Cc2ccc(-c3ccccc3SC3=C(C(=O)O)N4C(=O)[C@@H](NC(=O)Cc5ccccc5)[C@H]4SC3)s2)cc1 [Cmpd 43, (7R)-7-[(Phenylacetyl)amino]-3-(2-(2-(4-methoxy-phenylmethyl)thien-5-yl)phenylthio)-3-cephem-4-carboxylic acid] | < 0.25 | < 0.25 | 8 (≈ 12.7 µM) | < 0.25 | 16 (≈ 25.4 µM) | 4 (≈ 6.36 µM) | 4 (≈ 6.36 µM) | > 32 | > 32 |  |  |
| CSc1ccccc1SC1=C(C(=O)O)N2C(=O)[C@@H](NC(=O)Cc3ccccc3)[C@H]2SC1 [Cmpd 44, (7R)-7-[(Phenylacetyl)amino]-3-(2-methylthiophenylthio)-3-cephem-4-carboxylic acid] | < 0.25 | < 0.25 | 4 to 8 (≈ 8.46 to 16.9 µM) | < 0.25 | 8 (≈ 16.9 µM) | 4 (≈ 8.46 µM) | 4 (≈ 8.46 µM) | > 32 | > 32 |  |  |
| Cn1cc[n+](Cc2ccc(-c3ccccc3SC3=C(C(=O)[O-])N4C(=O)[C@@H](NC(=O)Cc5ccccc5)[C@H]4SC3)s2)c1 [Cmpd 45, (7R)-7-[(Phenylacetyl)amino]-3-(2-(2-(N-methylimidazoliummethyl)thien-5-yl)phenylthio)-3-cephem-4-carboxylic acid] |  |  | 16 (≈ 26.5 µM) | 0.5 (≈ 0.83 µM) | 32 (≈ 53.1 µM) | 4 (≈ 6.64 µM) | 4 (≈ 6.64 µM) | > 32 | > 32 | < 0.25 | < 0.25 |
| CC(C)(C)c1ccccc1SC1=C(C(=O)O)N2C(=O)[C@@H](NC(=O)Cc3ccccc3)[C@H]2SC1 [Cmpd 46, (7R)-7-[(Phenylacetyl)amino]-3-(2-tert-butylphenylthio)-3-cephem-4-carboxylic acid] | < 0.25 | < 0.25 | 8 (≈ 16.6 µM) | < 0.25 | 16 (≈ 33.2 µM) | 2 (≈ 4.14 µM) | 2 (≈ 4.14 µM) | > 32 | > 32 |  |  |
| CC(C)Oc1ccccc1SC1=C(C(=O)O)N2C(=O)[C@@H](NC(=O)Cc3ccccc3)[C@H]2SC1 [Cmpd 47, (7R)-7-[(Phenylacetyl)amino]-3-(2-iso-propyloxyphenylthio)-3-cephem-4-carboxylic acid] | < 0.25 | < 0.25 | 8 (≈ 16.5 µM) | < 0.25 | 16 (≈ 33 µM) | 2 (≈ 4.13 µM) | 4 (≈ 8.25 µM) | > 32 | > 32 |  |  |
| Cn1cc[n+](Cc2ccoc2-c2ccccc2SC2=C(C(=O)[O-])N3C(=O)[C@@H](NC(=O)Cc4ccccc4)[C@H]3SC2)c1 [Cmpd 48, (7R)-7-[(Phenylacetyl)amino]-3-(2-(3-(N-methylimidazoliummethyl)furan-2-yl)phenylthio)-3-cephem-4-carboxylic acid] |  |  | 16 (≈ 27.3 µM) | 0.5 (≈ 0.852 µM) | 16 (≈ 27.3 µM) | 4 (≈ 6.82 µM) | 4 (≈ 6.82 µM) | > 32 | > 32 | < 0.25 | < 0.25 |
| N#Cc1ccc(SC2=C(C(=O)O)N3C(=O)[C@@H](NC(=O)Cc4ccccc4)[C@H]3SC2)c([N+](=O)[O-])c1 [Cmpd 49, (7R)-7-[(Phenylacetyl)amino]-3-(4-cyano-2-nitrophenylthio)-3-cephem-4-carboxylic acid] |  |  | 16 (≈ 32.2 µM) | 0.5 (≈ 1.01 µM) | 32 (≈ 64.4 µM) | 4 (≈ 8.06 µM) | 4 (≈ 8.06 µM) | > 32 | > 32 | < 0.25 | < 0.25 |
| O=Cc1ccccc1SC1=C(C(=O)O)N2C(=O)[C@@H](NC(=O)Cc3ccccc3)[C@H]2SC1 [Cmpd 50, (7R)-7-[(Phenylacetyl)amino]-3-(2-formylphenylthio)-3-cephem-4-carboxylic acid] | < 0.25 | < 0.25 | 8 (≈ 17.6 µM) | < 0.25 | 8 (≈ 17.6 µM) | 4 (≈ 8.8 µM) | 4 (≈ 8.8 µM) | 8 (≈ 17.6 µM) | > 32 |  |  |
| O=C(Cc1ccccc1)N[C@@H]1C(=O)N2C(C(=O)O)=C(Sc3cccc4c3CCCC4)CS[C@H]12 [Cmpd 56, (7R)-7-[(Phenylacetyl)amino]-3-(5,6,7,8-tetrahydronaphthalen-1-ylthio)-3-cephem-4-carboxylic acid] | < 0.25 | < 0.25 | 4 (≈ 8.32 µM) | < 0.25 | 16 (≈ 33.3 µM) | 4 (≈ 8.32 µM) | 2 (≈ 4.16 µM) | > 32 | > 32 |  |  |
| O=C(Cc1ccccc1)N[C@@H]1C(=O)N2C(C(=O)O)=C(Sc3ccc4ccccc4c3Br)CS[C@H]12 [Cmpd 57, (7R)-7-[(Phenylacetyl)amino]-3-(1-bromo-naphthalen-2-ylthio)-3-cephem-4-carboxylic acid] | < 0.25 | < 0.25 | 2 (≈ 3.6 µM) | < 0.25 | 4 (≈ 7.2 µM) | 1 (≈ 1.8 µM) | 2 (≈ 3.6 µM) | 32 (≈ 57.6 µM) | 32 (≈ 57.6 µM) |  |  |
| O=C(Cc1ccccc1)N[C@@H]1C(=O)N2C(C(=O)O)=C(Sc3ccc(CSC4=NCCN4)cc3I)CS[C@H]12 [Cmpd 59, (7R)-7-[(Phenylacetyl)amino]-3-(4-(2-imidazolin-2-ylthiomethyl)-2-iodophenylthio)-3-cephem-4-carboxylic acid] | < 0.25 | < 0.25 | 8 (≈ 12 µM) | < 0.25 | 16 (≈ 24 µM) | 4 (≈ 6 µM) | 4 (≈ 6 µM) | > 32 | > 32 |  |  |
| N=C(N)NC(=N)SCc1ccc(SC2=C(C(=O)O)N3C(=O)[C@@H](NC(=O)Cc4ccccc4)[C@H]3SC2)c(I)c1 [Cmpd 60, (7R)-7-[(Phenylacetyl)amino]-3-(4-(N-amidino)isothiouroniummethyl-2-iodophenylthio)-3-cephem-4-carboxylate, inner salt] | < 0.25 | < 0.25 | 4 | < 0.25 | 4 to 8 | 1 | 1 | > 32 | > 32 |  |  |
| N=C(NCCN1CCOCC1)SCc1ccc(SC2=C(C(=O)O)N3C(=O)[C@@H](NC(=O)Cc4ccccc4)[C@H]3SC2)c(I)c1 [Cmpd 61, (7R)-7-[(Phenylacetyl)amino]-3-(4-(N-morpholinoethyl)isothiouroniummethyl-2-iodophenylthio)-3-cephem-4-carboxylate, inner salt] |  |  | 16 | 0.5 | > 32 | 4 | 4 | > 32 | > 32 | < 0.25 | < 0.25 |
